Reference: patent US11208382B2, “Entinostat-containing compound, crystal form of compound thereof, and preparation method therefor and pharmaceutical composition thereof” (Hangzhou SoliPharma Co., Ltd., priority 2017, dated 2021)
Each block holds one compound with its values, some of them ahead of it.

Columns and labels:
Format in all cases: physicochemical
[1] = chemical stability test by HPLC analysis
Protocol: HPLC data were collected on Ultimate 3000 under the following conditions: column, YMC-Pack ODS-AQ (4.6*250 mm*5 μm); column temperature, 40° C.; flow rate, 1.5 mL/min; detection wavelength, 254 nm; injection volume 3 uL; operation time, 40 min; mobile phase, a mixture of acetonitrile: 10 mM monopotassium phosphate=1:2. 1. Appropriate amounts of entinostat and Compound A in the present invention were used respectively for HPLC analysis, the purity of the compounds and the maximum single impurity (RRT=1.403) were calculated. 2. Chemical stability tests of entinostat and Compound A in the present invention were performed. The conditions were as follows: room temperature, high temperature (40° C.), high humidity (75% RH), and acceleration (40° C.-75% RH), and the storage time is 14 days. Using HPLC analysis, the change of maximum single impurity (RRT=1.403), the change of the main ingredient level and the change of total impurities number were studied.

[2] = phase stability test of the crystalline forms; settings: for phases after storage: stored at room temperature and high temperature for 14 days
Protocol: X-ray powder diffraction (XRPD): performed on Bruker D8 Advance diffractometer. The scan range 3-40° 20, step size 0.02020, and speed 0.2 s/step. Appropriate amounts of Crystalline Form of Compound A and Crystalline Form of Compound B in the present invention were used respectively for the phase stability test. The conditions were room temperature and high temperature (50° C.).

[3] = apparent water solubility test; settings: for solubility at 3 min: thermodynamic from solid, apparent water solubility, water bath 25° C.±2° C., visual check for clear solution
Protocol: Entinostat, Compound A and Compound B in the present invention were tested for the apparent water solubility, and the operations were as follows:
Placed 3 mg of sample in a 100 mL Erlenmeyer flask in a water bath at 25° C.±2° C., added water by doubling, stirred at about 200 rpm/min, checked visually if the solution was clear. The interval between each addition of water was 3 minutes, and the maximum amount of water to add was 60 mL.

[4] = High temperature (40° C.), 14 days, first line so headed (r10)
[5] = High temperature, 14 days, second line so headed (r12)
[6] = Speeded-up (acceleration, 40° C.-75% RH), 14 days
[7] = High temperature (50° C.), 7 days
[8] = High temperature (50° C.), 14 days
[9] = High temperature (40° C.), 14 days, first line so headed (r10), listed as Entinostat
[10] = High temperature, 14 days, second line so headed (r12), listed as Entinostat
[11] = Room temperature, 0 days, listed as Entinostat
[12] = Room temperature, 14 days, listed as Entinostat
[13] = Speeded-up (acceleration, 40° C.-75% RH), 14 days, listed as Entinostat

Main ingredient (%) [1, 4]: 99.9% | Number of impurities (≥0.04%) [1, 4]: 0 | RRT = 1.403 (%) maximum single impurity [1, 4]: 0.11% | Main ingredient (%) [1, 5]: 99.9% | Number of impurities (≥0.04%) [1, 5]: 0 | RRT = 1.403 (%) maximum single impurity [1, 5]: 0.11% | Main ingredient (%) ([1]; Room temperature, 0 days): 99.9% | Number of impurities (≥0.04%) ([1]; Room temperature, 0 days): 0 | RRT = 1.403 (%) maximum single impurity ([1]; Room temperature, 0 days): 0.12% | Main ingredient (%) ([1]; Room temperature, 14 days): 99.9% | Number of impurities (≥0.04%) ([1]; Room temperature, 14 days): 0 | RRT = 1.403 (%) maximum single impurity ([1]; Room temperature, 14 days): 0.13% | Main ingredient (%) [1, 6]: 99.9% | Number of impurities (≥0.04%) [1, 6]: 0 | RRT = 1.403 (%) maximum single impurity [1, 6]: 0.13% | Crystal form after storage [2, 7]: unchanged | Crystal form after storage [2, 8]: unchanged | Crystal form after storage ([2]; Room temperature, 7 days): unchanged | Crystal form after storage ([2]; Room temperature, 14 days): unchanged | phases after storage [2]: unchanged
Structure (SMILES): Nc1ccccc1NC(=O)c1ccc(CNC(=O)OCc2cccnc2)cc1 [Compound A]

solubility at 3 min [3]: 1010 µg/mL | Crystal form after storage [2, 7]: unchanged | Crystal form after storage [2, 8]: unchanged | Crystal form after storage ([2]; Room temperature, 7 days): unchanged | Crystal form after storage ([2]; Room temperature, 14 days): unchanged | phases after storage [2]: unchanged
Structure (SMILES): Nc1ccccc1NC(=O)c1ccc(CNC(=O)OCc2cccnc2)cc1.O=C(O)/C=C\C(=O)O [Compound B]

solubility at 3 min [3]: < 50 µg/mL | impurity at RRT=1.403, main ingredient and number of impurities after storage ([1]; 14 days under room temperature, high temperature, high humidity and acceleration): essentially unchanged | Main ingredient (%) [1, 9]: 98.4% | Number of impurities (≥0.04%) [1, 9]: 5 | RRT = 1.403 (%) maximum single impurity [1, 9]: 1.44% | Main ingredient (%) [1, 10]: 98.4% | Number of impurities (≥0.04%) [1, 10]: 5 | RRT = 1.403 (%) maximum single impurity [1, 10]: 1.43% | Main ingredient (%) [1, 11]: 98.4% | Number of impurities (≥0.04%) [1, 11]: 4 | RRT = 1.403 (%) maximum single impurity [1, 11]: 1.42% | Main ingredient (%) [1, 12]: 98.4% | Number of impurities (≥0.04%) [1, 12]: 4 | RRT = 1.403 (%) maximum single impurity [1, 12]: 1.42% | Main ingredient (%) [1, 13]: 98.4% | Number of impurities (≥0.04%) [1, 13]: 5 | RRT = 1.403 (%) maximum single impurity [1, 13]: 1.41%
Structure (SMILES): Nc1ccccc1NC(=O)c1ccc(CNC(=O)OCc2cccnc2)cc1 [entinostat, N-(2-aminophenyl)-4-[N-(pyridin-3-yl)methoxycarbonyllaminomethyl]benzamide]

solubility in water (in words) ([3]; finding of the inventors on prior-art polymorphs, no method given): low
Structure (SMILES): Nc1ccccc1NC(=O)c1ccc(CNC(=O)OCc2cccnc2)cc1 [polymorph A, N-(2-aminophenyl)-4-[N-(pyridin-3-yl)methoxycarbonyllaminomethyl]benzamide]
